Experimental data reported in paper PMC6263940 (Nature chemical biology, 2018).

Target: T1, ABHD12 (Mus musculus, UniProt Q99LR1)
T1 sequence (Q99LR1 1-398): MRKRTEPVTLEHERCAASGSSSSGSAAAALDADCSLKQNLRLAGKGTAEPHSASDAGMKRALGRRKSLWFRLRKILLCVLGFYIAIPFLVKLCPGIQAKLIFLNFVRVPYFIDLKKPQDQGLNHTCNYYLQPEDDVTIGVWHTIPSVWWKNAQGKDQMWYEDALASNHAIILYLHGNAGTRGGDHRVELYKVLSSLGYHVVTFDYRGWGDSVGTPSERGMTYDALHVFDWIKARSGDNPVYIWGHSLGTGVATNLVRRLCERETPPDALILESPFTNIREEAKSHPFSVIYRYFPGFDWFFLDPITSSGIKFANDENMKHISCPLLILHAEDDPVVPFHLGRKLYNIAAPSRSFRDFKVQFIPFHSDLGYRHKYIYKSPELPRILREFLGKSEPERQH
Assay: Ex vivo gel-based competitive ABPP
Assay type: in vivo

`FC(F)(F)Oc1ccc(Oc2ccnc(N3CCC(NC(=S)Nc4cccnc4)CC3)c2Cl)c(Cl)c1` [DO264, N-3-pyridyl-N’-(1-[3-chloro-4-{2-chloro-4-(trifluoromethoxy)phenoxy}pyridine-2-yl]piperidin-4-yl)thiourea] was tested. Which “brain ABHD12 activity at 48 h post-dosing” value (30 mg/kg, i.p.) did it give?
The value was “partial recovery”.

And the “time post-treatment over which inhibition of brain ABHD12 activity was observed” value (30 mg/kg, i.p.)?
The value was 4 to 24 h.

And the “brain ABHD12 activity, ex vivo analysis with JJH350 probe” value (C57BL/6 mice, 30 and 60 mg/kg, i.p. (4 h or 24 h) or p.o. (4 h))?
Its value is “complete inhibition”.

What about the “inhibition of ABHD12 in peripheral tissues of mice” value (i.p., 30 mg/kg, 4 h, FP-Rh and JJH350 probes) of the same compound?
Its value is “selectively inhibited”.
